Laboratory results published in publication PMC11073612 (Nature structural & molecular biology, 2022).
Entries after “also recorded” stand apart in the source; their conditions may differ. Where no end group is shown, it is not given here.

Key:
SSTR1–5 = conditions: cited from earlier work
SSTR3 H192A = assay: BRET-based Gi3 activation assay, SSTR3 H192A; assay type: cell-based; conditions: HEK-293S
SSTR2 ECL2 mutants = assay: BRET assays comparing SST14 and SST28 at ECL2 mutants; assay type: cell-based; conditions: HEK-293S; for behavior of SST14 versus SST28 across ECL2 mutants: all of the mutants tested
SSTR2 = assay: BRET-based G protein activation assay at SSTR2; assay type: cell-based; conditions: HEK-293S, 10 min after ligand, n=3 biological replicates
[1] = system: SSTR2 R184 to alanine mutant; assay: BRET-based Gi3 activation assay, SSTR2 ECL2 mutant R184 to alanine; assay type: cell-based; conditions: HEK-293S
SSTR5 = assay: BRET-based Gi3 activation assay at SSTR5; assay type: cell-based; conditions: HEK-293S, 10 min after ligand, n=3 biological replicates
SSTR4 = assay: BRET-based Gi3 activation assay at SSTR4; assay type: cell-based; conditions: HEK-293S, 10 min after ligand, n=3 biological replicates
[2] = system: SSTR2 ECL2+/4 (entire ECL2 from SSTR4); assay: BRET-based Gi3 activation assay, SSTR2 ECL2+/4 chimera; assay type: cell-based; conditions: ECL2+/4 vs ECL2/4, HEK-293S, n=3
SSTR3 = assay: BRET-based Gi3 activation assay at SSTR3; assay type: cell-based; conditions: HEK-293S, 10 min after ligand, n=3 biological replicates
[3] = system: SSTR2 R184 to proline mutant; assay: BRET-based Gi3 activation assay, SSTR2 ECL2 mutant R184 to proline; assay type: cell-based; conditions: HEK-293S
[4] = system: chimeric constructs of SSTR2 (ECL swaps); assay: BRET-based Gi3 activation assay, SSTR2 ECL2/ECL3 chimeras; assay type: cell-based; conditions: HEK-293S, n=3; for ligand recognition, effect of ECL swaps: nearly all ECL2/ECL3 swaps
SSTR3 H192T = assay: BRET-based Gi3 activation assay, SSTR3 H192T; assay type: cell-based; conditions: HEK-293S
SSTR1 = assay: BRET-based Gi3 activation assay at SSTR1; assay type: cell-based; conditions: HEK-293S, 10 min after ligand, n=3 biological replicates
SSTR2 Q102^2.63S = assay: BRET-based Gi3 activation assay, SSTR2 Q102S; assay type: cell-based; conditions: HEK-293S
SSTR2 N276^6.55Q = assay: BRET-based Gi3 activation assay, SSTR2 N276Q; assay type: cell-based; conditions: HEK-293S
SSTR2 Q187M = assay: BRET-based Gi3 activation assay, SSTR2 Q187M; assay type: cell-based; conditions: HEK-293S, n=3 biological replicates

Substance | subtype selectivity (SSTR1–5) | SST14-stimulated G protein activation (effect of mutation) (SSTR3 H192A) | behavior of SST14 versus SST28 across ECL2 mutants (SSTR2 ECL2 mutants) | Gi3 BRET activation response (SSTR2) | SSTR2 activation (effect of mutation) [1] | Gi3 BRET activation response (SSTR5) | Gi3 BRET activation response (SSTR4) | SST14-induced signaling compared to the shorter SSTR4 ECL2 swap [2] | Gi3 BRET activation response (SSTR3) | SSTR2 activation (effect of mutation) [3] | impairment by ECL swaps, SST14 versus octreotide ([4]; ECL swaps) | ligand recognition, effect of ECL swaps [4] | SST14-stimulated G protein activation (effect of mutation) (SSTR3 H192T) | Gi3 BRET activation response (SSTR1) | strength of SST28 relative to SST14 (SSTR2 ECL2 mutants; across all of the ECL2 mutants tested) | octreotide-induced G protein signaling (effect of mutation) (SSTR2 Q102^2.63S) | octreotide signaling (effect of mutation) (SSTR2 N276^6.55Q) | octreotide signaling (effect of mutation) (SSTR2 Q187M)
lanreotide | SSTR2-selective | – | – | – | – | – | – | – | – | – | – | – | – | – | – | – | – | –
SST14: endogenous 14-residue somatostatin peptide (Cayman, 20809) | – | deleterious to SST14-stimulated G protein activation | remarkably similar | comparable response | substantially reduces SSTR2 activation | comparable response | comparable response | improved SST14-induced signaling | comparable response | substantially reduces SSTR2 activation | far greater impairment for SST14 than octreotide | impaired ligand recognition of SST14 and octreotide to some degree; also recorded: non-linear effect on SST14-induced signaling | deleterious to SST14-stimulated G protein activation | comparable response | – | – | – | –
SST28: 28-residue somatostatin peptide (SANSNPAMAPRERKAGCKNFFWKTFTSC; ends and bridges not checked; cysteine pairing not given here) | – | – | remarkably similar | – | – | – | – | – | – | – | – | – | – | – | slightly weaker binder than SST14 (less than an order of magnitude) | – | – | –
octreotide | – | – | – | activates SSTR2 most potently | substantially reduces SSTR2 activation | reduced response | almost no activity | – | reduced response | substantially reduces SSTR2 activation | – | impaired ligand recognition of SST14 and octreotide to some degree | – | almost no activity | – | selectively reduces octreotide-induced G protein signaling | decreases octreotide signaling in a selective manner | enhances octreotide signaling
